Assay results published in patent publication US20230263817A1, “HIGH DOSE NICOTINAMIDE ADENINE DINUCLEOTIDE (NAD) PRECURSOR REGIMENS FOR REDUCTION OF INFLAMMATION IN HUMAN PATIENTS WITH PREEXISTING INFLAMMATION” (University of Washington, priority 2021, published 2023).

What was measured:
[1] = test system: monocytes isolated from healthy subjects; assay: Maximal respiration of isolated monocytes after 4-hour IL6 treatment; assay type: cell-based; conditions: 4-hour 1 ng/mL recombinant human IL6
Method: PBMC and Monocyte isolation. 30-60 ml of fasting blood was collected into EDTA-containing Vacutainers (BD Mfr #364606). Blood then was diluted (1:1) with RPMI medium (Corning; Cat #17-105-CV) and applied to Histopaque gradient medium (Sigma-Aldrich; Cat #10771) using SepMate-50 (STEMCELL Technologies), and centrifuged at 1200 g for 10 minutes. Top layer contained the enriched peripheral blood mononuclear cells (PBMCs) which were collected and followed by centrifugation at 300 g for 10 minutes. The pellet was resuspended with ACK lysis buffer (Gibco; Cat. A1049201) and incubated at room temperature for 5 minutes to remove residual red blood cells. Next, the enriched PBMCs were washed twice with RPMI medium. All PBMC samples were subjected to the baseline Seahorse Mito Stress Test. When available, the remaining cells were used for cytokine mRNA quantitative PCR and in vitro assays. For monocyte isolation, a magnetic bead-based negative-selection monocyte isolation kit (Miltenyi Biotec, 130-096-537) was used per the manufacturer's instructions. […]
Seahorse Mito Stress Test. Oxygen consumption rate (OCR) of freshly isolated PBMCs was assessed using a Seahorse XFe24 analyzer (Agilent Technologies). […]

Complex I = conditions: healthy PBMC, 4-hour IL6 (1 ng/mL) vs vehicle
Method: Complex I in vitro assay. This assay was performed using Abcam Complex I Enzyme Activity Microplate Assay Kit (ab109721), per the manufacturer's protocol. Briefly, following a 4-hour treatment with vehicle or IL6, 5×10^6 PBMCs were washed with PBS and lysed by detergent for 30 minutes on ice, followed by centrifugation at 16,000 g for 20 minutes at 4° C. Supernatant was taken for protein concentration determination. 12.5 μg of total protein in a final volume of 200 μL was incubated in microplates precoated with anti-Complex I antibody for 3 hours at room temperature. Post-washing step, NADH and dye were added, and optical density (OD) was serially measured at 450 nm over 1 hour. The slope of the curve within the linear range was recorded as Complex I activity.

healthy PBMCs = assay: Seahorse Mito Stress Test (OCR) of healthy PBMCs after 4-hour in vitro treatment; assay type: cell-based, human; conditions: for PBMC maximal OCR: 4-hour increasing concentrations of recombinant human IL1B or IL18
Method: PBMC and Monocyte isolation. 30-60 ml of fasting blood was collected into EDTA-containing Vacutainers (BD Mfr #364606). Blood then was diluted (1:1) with RPMI medium (Corning; Cat #17-105-CV) and applied to Histopaque gradient medium (Sigma-Aldrich; Cat #10771) using SepMate-50 (STEMCELL Technologies), and centrifuged at 1200 g for 10 minutes. Top layer contained the enriched peripheral blood mononuclear cells (PBMCs) which were collected and followed by centrifugation at 300 g for 10 minutes. The pellet was resuspended with ACK lysis buffer (Gibco; Cat. A1049201) and incubated at room temperature for 5 minutes to remove residual red blood cells. Next, the enriched PBMCs were washed twice with RPMI medium. All PBMC samples were subjected to the baseline Seahorse Mito Stress Test. When available, the remaining cells were used for cytokine mRNA quantitative PCR and in vitro assays. For monocyte isolation, a magnetic bead-based negative-selection monocyte isolation kit (Miltenyi Biotec, 130-096-537) was used per the manufacturer's instructions. Briefly, antibody-conjugated magnetic bead solution was added to isolated PBMCs resuspended in RPMI containing 0.5% BSA and incubated for 20 minutes at 4° C., followed by magnetic column binding and elution. The procedure was repeated once to improve the purity of monocytes. The monocytes were washed once with RPMI prior to subsequent experiments.
Seahorse Mito Stress Test. Oxygen consumption rate (OCR) of freshly isolated PBMCs was assessed using a Seahorse XFe24 analyzer (Agilent Technologies). Briefly, purified PBMCs were resuspended in Seahorse base medium (Agilent Technologies, supplemented with 1 mM pyruvate, 2 mM glutamine, and 10 mM glucose, pH 7.4), and added 10^6 cells/well at equal volume of 500 μL in a Seahorse 24-well plate. The cells were maintained in a non-CO2 incubator and allowed to settle for 30 minutes at 37° C. Next, the plate was centrifuged at 40 g for 10 minutes at room temperature without application of the brake to help cells attach to the bottom of the plate. Drugs used in the assay: 5 μM oligomycin A (Sigma-Aldrich; Cat. 75351), 3 μM Trifluoromethoxy carbonylcyanide phenylhydrazone (FCCP) (Sigma-Aldrich; Cat. C2920), 1 μM Rotenone (Sigma-Aldrich; Cat. […]), 1 μM Antimycin A (Sigma-Aldrich; Cat. […]), 0.5 mM TMPD (Sigma-Aldrich; Cat. T7394) and 10 mM Ascorbate (Sigma-Aldrich; Cat. 95209).
(§1) PBMC and Monocyte Culture. Freshly isolated PBMCs or Monocytes from healthy or HF subjects were resuspended with RPMI medium plus 10% heat inactivated FBS. PBMCs (10^6 cells/well) were seeded in Seahorse 24-well plates and incubated at 37° C. in CO2 incubator with various proinflammatory triggers (Vehicle, MitoDAMP, LPS) and compounds (NR, MCC 950, MitoTempo, or LMT-28). After 4 hours incubation, the plate was centrifuged at 40 g for 10 minutes at room temperature without application of the brake to help cells attach to the bottom of the plate. The cells were washed twice and then brought up to 500 μL using Seahorse base medium (Agilent Technologies, supplemented with 1 mM pyruvate, 2 mM glutamine, and 10 mM glucose, pH 7.4).

[2] = test system: NLRP3 and pro-inflammatory cytokine (IL1β, IL6, IL18, TNFα) mRNA in healthy PBMCs; assay: RT-qPCR of NLRP3 and pro-inflammatory cytokine mRNA in healthy PBMCs treated in vitro; assay type: cell-based, human; conditions: 4-hour MitoDAMP with 0.5 mM MitoTempo relative to MitoDAMP alone
Method: as §1
IL6 ELISA. Isolated PBMCs (4×10^6 cells per sample) from healthy or HF participants were resuspended in RPMI medium containing 10% heat-inactivated FBS and treated with various proinflammatory triggers (Vehicle, MitoDAMP, LPS) and compounds (NR, MCC 950, MitoTempo, or LMT-28) to final PBMC concentrations of 10×10^6 cells per mL. See below for detailed descriptions of the reagents. The samples were incubated in Eppendorf tubes at 37° C. in a 5% CO2 incubator with caps open for times designated in the brief description of drawings. The cultured PBMC samples were centrifuged at 8,000 RPM at room temperature. The supernatant was used for ELISA per the manufacture protocol using R&D Systems human IL6 kit (Cat #DY206-05). The cell pellets were stored in −80° C.
RNA Isolation and Quantitative PCR analysis. Total RNA was isolated from frozen PBMC pellets using Trizol (Invitrogen) per the manufacturer's instructions, and cDNA was synthesized using iScript™ Reverse Transcription Supermix (Bio-rad) per the manufacturer's instructions. Real-time PCR was performed in the Corbett rotor gene 6000 real-time PCR machine using iQ™ SYBR® Green Supermix (Bio-rad) and expression levels of the indicated genes were calculated using the ΔΔCt method.

recombinant IL6: human recombinant IL6, purchased from Gibco
maximal OCR of monocytes [1]: decreased
Complex I enzymatic activity (Complex I): reduced
OCR through Complex IV (TMPD and ascorbate as electron donors) (healthy PBMCs; healthy PBMC, 4-hour IL6 (1 ng/mL) vs vehicle): no difference
maximal OCR (healthy PBMCs; healthy PBMCs, 4-hour increasing concentrations of human recombinant IL6): dose-dependent decline
lowest IL6 concentration with significant reduction of maximal OCR (healthy PBMCs; healthy PBMCs, 4-hour treatment): 0.1 ng/mL

CC(C)(O)c1coc(S(=O)(=O)NC(=O)Nc2c3c(cc4c2CCC4)CCC3)c1 [MCC950]
maximal OCR (healthy PBMCs; healthy PBMC, 4-hour MitoDAMP with 1 μM MCC950): marginally improved

IL18: human recombinant IL18, purchased from R&D Systems
PBMC maximal OCR (healthy PBMCs; healthy PBMCs): did not result in a significant decrease

CC1(C)CC(NC(=O)C[P+](c2ccccc2)(c2ccccc2)c2ccccc2)CC(C)(C)N1[O] [MitoTempo]
cytokine gene expressions [2]: markedly attenuated
maximal OCR (healthy PBMCs; healthy PBMC, 4-hour MitoDAMP with 0.5 mM MitoTempo vs MitoDAMP alone): did not change

recombinant IL1β: human recombinant IL1β, purchased from R&D Systems
PBMC maximal OCR (healthy PBMCs; healthy PBMCs): did not result in a significant decrease
